Values after ≈ are worked out from the molar mass of the structure shown.

The results in this text go back to article doi:10.1101/2024.08.19.608619, “Discovery of potent SARS-CoV-2 nsp3 macrodomain inhibitors uncovers lack of translation to cellular antiviral response” (bioRxiv, 2024).

A short description of data set [1]: Hepatic microsomal stability, HLM. The class given is in vitro ADME, human. The settings on record: In vitro human liver microsomal stability; for perc_remaining_no_cofactor: no cofactor. (Liver microsomes are a subcellular fraction often used to study metabolism.)
Data set [2] is described as follows: Hepatic microsomal stability, MLM. The class given is in vitro ADME. To be noted: In vitro mouse liver microsomal stability; for perc_remaining_no_cofactor: no cofactor.
Another data set in a line: LogD. To be noted: pH 7.4; In vitro LogD.
Data set [3] can be described thus: In vitro kinetic solubility. The settings on record: In vitro kinetic solubility, ph 7.4.
Data set [4] can be described thus: Permeability Papp (AB) MDR1/MDCKII. The settings on record: In vitro MDR1-MDCKII permeability; for papp_a_to_b_mean: A to B; for perc_recovery_a_to_b_mean: recovery A to B.

As to `CC(C)[C@H](Nc1ncnc2[nH]c(-c3cnn(CC(N)=O)c3)cc12)c1ccc2c(c1)OCCO2` (single isomer, unassigned) [ASAP-0008450], in data set [1], the clint was 238.0 µL/min/mg, the perc_remaining turned out to be 2.0%, the t_half is recorded as 7.0 min and the perc_remaining_no_cofactor turned out to be 90.0%. In data set [2], the clint is 42.0 µL/min/mg, the perc_remaining was 49.0%, the t_half is given as 40.0 min and the perc_remaining_no_cofactor is recorded as 98.0%. The same compound returned a logd in the data set “LogD” of 2.9. Moreover, the solubility_mean in data set [3] turned out to be 332 µM (≈ 149 µg/mL). For the same compound, in data set [4] (mean), the papp_a_to_b_mean amounted to 1.87 ×10⁻⁶ cm/s and the perc_recovery_a_to_b_mean came to 90.9%.
For `CC(C)(C)[C@H](Nc1ncnc2[nH]c(-c3cnn(CC(N)=O)c3)cc12)c1ccc2c(n1)OCCO2` (single isomer, unassigned) [ASAP-0011159], in data set [1], the clint is 27.0 µL/min/mg, the perc_remaining worked out at 64.0%, the t_half worked out at 60.8 min and the perc_remaining_no_cofactor is on record as 95.0%. Besides, in data set [2], the clint was 10.0 µL/min/mg, the perc_remaining was 88.0%, the t_half is on record as 162.3 min and the perc_remaining_no_cofactor is 116.0%. Moreover, the logd in “LogD” worked out at 2.7. In data set [3], this compound displayed a solubility_mean of 372 µM (≈ 172 µg/mL). Moreover, in data set [4] (no inhibitor), the papp_a_to_b_mean was determined as 1.02 ×10⁻⁶ cm/s and the perc_recovery_a_to_b_mean is 95.8%.
For `CC(C)[C@H](Nc1ncnc2[nH]cc(C(=O)NC3CC3)c12)c1ccc2c(c1)S(=O)(=O)CCC2` (single isomer, unassigned) [ASAP-0011247], in data set [1], the clint worked out at 5.0 µL/min/mg, the perc_remaining is recorded as 90.0%, the t_half was found to be 320.1 min and the perc_remaining_no_cofactor is recorded as 112.0%. Besides, in data set [2], the clint came to 42.0 µL/min/mg, the perc_remaining stood at 50.0%, the t_half was found to be 39.5 min and the perc_remaining_no_cofactor came out at 102.0%. In “LogD”, the logd was 3.0. In addition, the solubility_mean in data set [3] came to 19 µM (≈ 8.62 µg/mL). In addition, in data set [4] (no inhibitor), the papp_a_to_b_mean turned out to be 1.27 ×10⁻⁶ cm/s and the perc_recovery_a_to_b_mean was determined as 71.5%.
On to `CC(C)(C)[C@H](Nc1ncnc2[nH]c(-c3cnn(CC(N)=O)c3)cc12)c1ccc2c(c1)OCCO2` (single isomer, unassigned) [ASAP-0012332], for which, in data set [1], the clint is 100.0 µL/min/mg, the perc_remaining came to 18.0%, the t_half turned out to be 16.8 min and the perc_remaining_no_cofactor turned out to be 109.0%. For the same compound, in data set [2], the clint came to 39.0 µL/min/mg, the perc_remaining was 54.0%, the t_half is on record as 43.1 min and the perc_remaining_no_cofactor is on record as 106.0%. The same compound showed a logd in the data set “LogD” of 3.1. The same compound yielded a solubility_mean in data set [3] of 104 µM (≈ 48 µg/mL). In data set [4] (no inhibitor), the papp_a_to_b_mean amounted to 1.01 ×10⁻⁶ cm/s and the perc_recovery_a_to_b_mean was 76.5%.
Consider `CNC(=O)c1cc2c(N[C@H](c3ccc4c(c3)S(=O)(=O)CCC4)C(C)C)ncnc2[nH]1` (single isomer, unassigned) [ASAP-0012340], for which, in data set [1], the clint was determined as 67.0 µL/min/mg, the perc_remaining is given as 33.0%, the t_half was 25.0 min and the perc_remaining_no_cofactor is given as 107.0%. Besides, in data set [2], the clint was 47.0 µL/min/mg, the perc_remaining worked out at 42.0%, the t_half is given as 35.3 min and the perc_remaining_no_cofactor is on record as 106.0%. In addition, the logd in the data set “LogD” is on record as 2.3. The compound further returned a solubility_mean in data set [3] of 374 µM (≈ 160 µg/mL). In data set [4] (no inhibitor), this compound returned a papp_a_to_b_mean of 0.891 ×10⁻⁶ cm/s and a perc_recovery_a_to_b_mean of 74.2%.
